Values of other authors, collected in patent US20240082160A1, “AMLODIPINE DRY SUSPENSION AND PREPARATION METHOD THEREFOR” (GUANGZHOU APICHOPE PHARMACEUTICAL CO., LTD., priority 2021, published 2024).

- solubility in water: slightly soluble in water
SMILES: CCOC(=O)C1=C(COCCN)NC(C)=C(C(=O)OC)C1c1ccccc1Cl (stereo not shown) [amlodipine besylate]
